Data on five compounds can be found in patent US20080069814A1, “Prevention of Thrombotic Disorders with Active Vitamin D Compounds or Mimics Thereof” (Novacea, Inc., priority 2005, published 2008).

Data set [1] deals with patients with prostate cancer. Briefly: Phase II clinical trial: Taxotere with or without calcitriol by HDPA, cardiovascular events. The conditions noted are these: 125 patients per arm; calcitriol three 15 μg capsules once a week on the day prior to Taxotere 75 mg/m^2. The class given is in vivo, human.
From the text: Two hundred fifty patients with prostate cancer were enrolled at 58 centers in the United States and Canada. All patients in the study received chemotherapy treatment with Taxotere®, a drug in the taxoid class of chemotherapeutic agents. […] Oral dexamethasone is also given along with the Taxotere® to minimize certain side effects (allergic reactions and fluid retention) associated with Taxotere®.
In addition to Taxotere® and dexamethasone, half of the patients were randomly treated with calcitriol and the other half received a placebo. Calcitriol was administered as three capsules of 15 μg each once a week on the day prior to chemotherapy. […] The same Taxotere® doses of 75 mg/m^2 body surface area were administered to the patients receiving Taxotere® alone or Taxotere® in combination with calcitriol.
Another data set concerns thrombomodulin (“TM”). To be noted: in vitro, cultured monocytic cells including human peripheral monocytes; cited from earlier work.
The next data set deals with TF. To be noted: in vitro, cultured monocytic cells including human peripheral monocytes; cited from earlier work.
In data set [2] the test system is women with metastatic breast cancer. To be noted: cited from earlier work.
Data set [3] relates to patients suffering from non-small-cell carcinoma of the lung. The conditions noted are these: in vivo, sc; cited from earlier work.
Data set [4] deals with venous thromboembolism (VTE). The conditions noted are these: in vivo; cited from earlier work.
Data set [5] deals with patients receiving heparin. To be noted: cited from earlier work.

Turning to `CC(=O)O[C@@]12CO[C@@H]1C[C@H](O)[C@@]1(C)C(=O)[C@H](O)C3=C(C)[C@@H](OC(=O)[C@H](O)[C@@H](NC(=O)OC(C)(C)C)c4ccccc4)C[C@@](O)([C@@H](OC(=O)c4ccccc4)[C@H]21)C3(C)C` [Taxotere®], in data set [1], the “Patients who developed deep vein thrombosis or thrombophlebits” value is listed as “six of 125”, the “Patients who developed myocardial infractions or myocardial ischemia” value is listed as “two of 125” and the “Patients who had a stroke (cerebrovascular events)” value was “two of 125”.

Regarding `C=C1/C(=C\C=C2/CCC[C@]3(C)[C@@H]([C@H](C)CCCC(C)(C)O)CC[C@@H]23)C[C@@H](O)C[C@@H]1O` [calcitriol, 1α,25-dihydroxyvitamin D3], in the data set with thrombomodulin (“TM”), the “Expression of the anticoagulant thrombomodulin” value is given as “up-regulating the expression”. In the data set on TF, the “Expression of TF” value is recorded as “down-regulating the expression”.

As to “epoetin alfa: erythropoiesis-stimulating agent, FDA-approved drug EPOGEN”, in data set [2] (in vivo), the “Kaplan-Meier estimated 12-month survival rate” value is listed as 70%. The “Mortality at 4 months” value in data set [2] (weekly epoetin alfa for up to a year, interim results) was 8.7%. For the same compound, in data set [2] (weekly epoetin alfa, interim results), the “Rate of fatal thrombotic events” value was 1.1%. In addition, the “Median survival versus placebo” value in data set [3] is on record as “significant difference in the median survival in favor of patients on the placebo arm”.

As to “erythropoietin: erythropoiesis-stimulating agent”, the “Association with VTE” value in data set [4] is recorded as “significantly associated with VTE”.

As for heparin, the “Patients with immunologic reaction resulting in heparin-induced thrombocytopenia (HIT), average” value in data set [5] was 5%.
